Where two headings read alike, the source gives them in different places.
Target: T1, IRAK4 (Homo sapiens, UniProt Q9NWZ3)
T1 construct: Degradation of IRAK4 in OCI-LY10 was quantitatively measured using Meso Scale Discovery technology; endogenous in cells; host or cells: OCI-LY10
T1 sequence (Q9NWZ3 1-460): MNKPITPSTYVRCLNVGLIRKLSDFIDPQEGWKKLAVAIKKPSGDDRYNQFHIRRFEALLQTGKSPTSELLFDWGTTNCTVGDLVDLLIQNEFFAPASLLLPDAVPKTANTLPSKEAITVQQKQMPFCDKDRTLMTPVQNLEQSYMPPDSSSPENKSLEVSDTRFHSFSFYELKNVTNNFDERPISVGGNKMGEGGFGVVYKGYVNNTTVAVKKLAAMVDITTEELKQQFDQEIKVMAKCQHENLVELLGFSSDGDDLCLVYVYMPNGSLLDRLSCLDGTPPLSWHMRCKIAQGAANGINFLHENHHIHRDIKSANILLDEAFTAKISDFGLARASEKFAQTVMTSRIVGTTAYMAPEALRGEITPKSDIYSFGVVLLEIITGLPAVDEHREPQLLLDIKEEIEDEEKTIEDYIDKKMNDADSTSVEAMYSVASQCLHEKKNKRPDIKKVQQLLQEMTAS
Assay: IRAK4 MSD Degradation in OCI-LY10
Format: cell-based
Conditions: OCI-LY10 cells, MSD
Method in brief: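 OCI-LY10 cells exposed to 8-point 1:3 compound series (top 1 to 10 μM) for 4 to 24 h at 37 °C, 5% CO2. Lysate IRAK4 quantified by MSD sandwich immunoassay. DC50 from three-parameter logistic fit, binned A (<0.01 μM) to D (>0.2 μM or not tested).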

[1] = 4 hrs incubation, read-out: IRAK4 degradation in OCI-LY10 at 4 hrs: DC50
[2] = 24 hrs incubation, read-out: IRAK4 degradation in OCI-LY10 at 24 hrs: DC50

| Compound | DC50 [1] [nM] | DC50 [2] [nM] |
| --- | --- | --- |
| Cn1c(=O)n(C2CCC(=O)NC2=O)c2cccc(N3CCN([C@@H]4CCN(C[C@H]5CC[C@H](n6cc(NC(=O)c7cnn8ccc(N9C[C@H]%10C[C@@H]9CO%10)nc78)c(C(F)F)n6)CC5)C[C@H]4F)CC3)c21 (stereo partly drawn) [I-683] | > 200 | < 10 |
| Cn1c(=O)n(C2CCC(=O)NC2=O)c2cccc([C@@H]3CCN(C[C@]4(O)CC[C@@H](n5cc6cc(NC(=O)c7cccc(C(F)(F)F)n7)ccc6n5)CC4)C[C@H]3F)c21 (stereo partly drawn) [I-690] | > 200 | < 10 |
| Cn1c(=O)n(C2CCC(=O)NC2=O)c2cccc(C#CCOC3CCN(C[C@H]4CC[C@@H](c5ccc(C(F)F)c(NC(=O)c6cnn7ccc(N8C[C@H]9C[C@@H]8CO9)nc67)c5)CC4)CC3)c21 (stereo partly drawn) [I-691] | > 200 | > 200 |
| CN(c1cccc2c1n(C)c(=O)n2C1CCC(=O)NC1=O)C1CN(C[C@H]2CC[C@H](n3cc(NC(=O)c4cnn5ccc(N6C[C@H]7C[C@@H]6CO7)nc45)c(C(F)F)n3)CC2)C1 (stereo partly drawn) [I-697] | > 200 | < 10 |
| CN(CC1CCN(c2cccc3c2n(C)c(=O)n3C2CCC(=O)NC2=O)CC1)c1ccc(-n2cc(NC(=O)c3cnn4cccnc34)c(C(F)F)n2)cc1 (stereo not drawn) [I-700] | > 200 | – |
| Cn1c(=O)n(C2CCC(=O)NC2=O)c2cccc(N3CCN(C4CCN(C[C@H]5CC[C@H](n6cc(NC(=O)c7cnn8ccc(N9C[C@H]%10C[C@@H]9CO%10)nc78)c(C(F)F)n6)CC5)CC4(F)F)CC3)c21 (stereo partly drawn) [I-701] | > 200 | < 10 |
| Cn1c(=O)n(C2CCC(=O)NC2=O)c2cccc(CN3CC4(CCN(Cc5ccc(-n6cc(NC(=O)c7cnn8ccc(N9C[C@H]%10C[C@@H]9CO%10)nc78)c(C(F)F)n6)cc5)CC4)C3)c21 (stereo partly drawn) [I-702] | > 200 | 10 to 100 |
| Cn1c(=O)n(C2CCC(=O)NC2=O)c2cccc(C#CCN3CCN(C[C@H]4CC[C@H](n5cc(NC(=O)c6cnn7ccc(N8CCOC(F)(F)C8)nc67)c(C(F)F)n5)CC4)CC3)c21 (stereo partly drawn) [I-703] | > 200 | < 10 |
| COc1cc2nn([C@H]3CC[C@H](CN4CC=C(c5ccc6c(c5)n(C)c(=O)n6C5CCC(=O)NC5=O)C(F)(F)C4)CC3)cc2cc1NC(=O)c1cccc(C(F)(F)F)n1 (stereo partly drawn) [I-704] | > 200 | 10 to 100 |
| O=C1CCN(c2cncc3c(C4CCN(C[C@H]5CC[C@H](n6cc7cc(NC(=O)c8cccc(C(F)(F)F)n8)ccc7n6)CC5)CC4(F)F)cccc23)C(=O)N1 (stereo partly drawn) [I-709] | > 200 | 10 to 100 |
| Cn1c(=O)n(C2CCC(=O)NC2=O)c2cccc(C3CCN(C[C@]4(O)CC[C@@H](n5cc6cc(NC(=O)c7cccc(C(F)(F)F)n7)ccc6n5)CC4)CC3)c21 (stereo partly drawn) [I-711] | > 200 | < 10 |
| Cn1c(=O)n(C2CCC(=O)NC2=O)c2ccc(N3CCN(CC4COC5(C4)CN(C[C@H]4CC[C@H](n6cc(NC(=O)c7cnn8ccc(N9C[C@H]%10C[C@@H]9CO%10)nc78)c(C(F)F)n6)CC4)C5)CC3)cc21 (stereo partly drawn) [I-712] | > 200 | < 10 |
| Cn1c(=O)n(C2CCC(=O)NC2=O)c2cccc(C#CCO[C@H]3CCN(C[C@H]4CC[C@H](n5cc(NC(=O)c6cnn7ccc(N8CCS(=O)(=O)CC8)nc67)c(C(F)F)n5)CC4)C[C@@H]3F)c21 (stereo partly drawn) [I-714] | > 200 | < 10 |
| Cn1c(=O)n(C2CCC(=O)NC2=O)c2cccc(C#CCO[C@@H]3CCN(C[C@H]4CC[C@H](n5cc(NC(=O)c6cnn7ccc(N8CCS(=O)(=O)CC8)nc67)c(C(F)F)n5)CC4)C[C@H]3F)c21 (stereo partly drawn) [I-715] | > 200 | < 10 |
| Cn1c(=O)n(C2CCC(=O)NC2=O)c2cccc([C@H]3C[C@H](CO[C@H]4CCN(C[C@H]5CC[C@H](n6cc(NC(=O)c7cnn8ccc(N9C[C@H]%10C[C@@H]9CO%10)nc78)c(C(F)F)n6)CC5)C[C@@H]4F)C3)c21 (stereo partly drawn) [I-718] | > 200 | < 10 |
| Cn1c(=O)n(C2CCC(=O)NC2=O)c2cccc(C3CCN(C[C@H]4CC[C@H](n5cc6cc(NC(=O)c7cnn8ccc(N9C[C@H]%10C[C@@H]9CO%10)nc78)ccc6n5)CC4)CC3(F)F)c21 (stereo partly drawn) [I-719] | > 200 | < 10 |
| Cn1c(=O)n(C2CCC(=O)NC2=O)c2cccc(N3CCN([C@@H]4CCN(C[C@H]5CC[C@H](n6cc(NC(=O)c7cnn8ccc(N9C[C@H]%10C[C@@H]9CO%10)nc78)c(C(F)F)n6)CC5)CC4(F)F)CC3)c21 (stereo partly drawn) [I-720] | > 200 | < 10 |

Other lines, results leading:

| DC50 [1] [nM] | DC50 [2] [nM] | Compound |
| --- | --- | --- |
| > 200 | < 10 | Cn1c(=O)n(C2CCC(=O)NC2=O)c2cccc(N3CCN(C[C@]4(O)CC[C@@H](n5cc6cc(NC(=O)c7cccc(C(F)(F)F)n7)ccc6n5)CC4)CC3)c21 (stereo partly drawn) [I-684] |
| > 200 | < 10 | Cn1c(=O)n(C2CCC(=O)NC2=O)c2cccc(N3CCN(C[C@H]4CC[C@H](n5cc6cc(NC(=O)c7cccc(C#N)n7)ccc6n5)CC4)CC3)c21 (stereo partly drawn) [I-685] |
| > 200 | 10 to 100 | Cn1c(=O)n(C2CCC(=O)NC2=O)c2ccc(F)c(N3CCN(C[C@H]4CC[C@H](n5cc6cc(NC(=O)c7cccc(C#N)n7)ccc6n5)CC4)CC3)c21 (stereo partly drawn) [I-686] |
| > 200 | < 10 | COc1ccc2c(c1N1CCN(CC3CCC(n4cc5cc(NC(=O)c6cccc(C#N)n6)ccc5n4)CC3)CC1)n(C)c(=O)n2C1CCC(=O)NC1=O (stereo not drawn) [I-687] |
| > 200 | < 10 | Cn1c(=O)n(C2CCC(=O)NC2=O)c2cccc(C3COC4(C3)CN(C[C@H]3CC[C@H](n5cc6cc(NC(=O)c7cccc(C(F)(F)F)n7)ncc6n5)CC3)C4)c21 (stereo partly drawn) [I-688] |
| > 200 | < 10 | Cn1c(=O)n(C2CCC(=O)NC2=O)c2cccc(C3COC4(C3)CN(C[C@H]3CC[C@H](n5cc6cc(NC(=O)c7cccc(C(F)(F)F)n7)ccc6n5)CC3)C4)c21 (stereo partly drawn) [I-689] |
| > 200 | < 10 | Cc1cccc(C(=O)Nc2cc3cn([C@H]4CC[C@H](CN5CCN(c6cccc7c6n(C)c(=O)n7C6CCC(=O)NC6=O)CC5)CC4)nc3cn2)n1 (stereo partly drawn) [I-692] |
| > 200 | < 10 | Cn1c(=O)n(C2CCC(=O)NC2=O)c2cccc(N3CCN(C[C@H]4CC[C@H](n5cc6cc(NC(=O)c7cccc(C(F)F)n7)ncc6n5)CC4)CC3)c21 (stereo partly drawn) [I-693] |
| > 200 | < 10 | Cn1c(=O)n(C2CCC(=O)NC2=O)c2ccc(F)c(N3CCN(C[C@H]4CC[C@H](n5cc6cc(NC(=O)c7cccc(C(F)(F)F)n7)ncc6n5)CC4)CC3)c21 (stereo partly drawn) [I-694] |
| > 200 | < 10 | Cc1cccc(C(=O)Nc2cc3cn([C@H]4CC[C@H](CN5CCN(c6c(F)ccc7c6n(C)c(=O)n7C6CCC(=O)NC6=O)CC5)CC4)nc3cn2)n1 (stereo partly drawn) [I-695] |
| > 200 | < 10 | Cn1c(=O)n(C2CCC(=O)NC2=O)c2cccc(OC3CN(C[C@H]4CC[C@H](n5cc6cc(NC(=O)c7cccc(C(F)(F)F)n7)c(C(C)(C)O)cc6n5)CC4)C3)c21 (stereo partly drawn) [I-696] |
| > 200 | > 200 | CN(c1cccc2c1n(C)c(=O)n2C1CCC(=O)NC1=O)C1CN(C[C@H]2CC[C@H](n3cc4cc(NC(=O)c5cccc(C(F)(F)F)n5)ncc4n3)CC2)C1 (stereo partly drawn) [I-698] |
| > 200 | > 200 | CN(c1cccc2c1n(C)c(=O)n2C1CCC(=O)NC1=O)C1CN(C[C@H]2CC[C@H](n3cc4cc(NC(=O)c5cccc(C(F)(F)F)n5)ccc4n3)CC2)C1 (stereo partly drawn) [I-699] |
| > 200 | < 10 | Cn1c(=O)n(C2CCC(=O)NC2=O)c2cccc(C3CCN(C[C@H]4CC[C@H](n5cc6cc(NC(=O)c7cccc(C(F)(F)F)n7)c(C#N)cc6n5)CC4)CC3(F)F)c21 (stereo partly drawn) [I-705] |
| > 200 | 10 to 100 | Cn1c(=O)n(C2CCC(=O)NC2=O)c2cccc(C3=CCN(C[C@H]4CC[C@H](n5cc6cc(NC(=O)c7cccc(C(F)(F)F)n7)ccc6n5)CC4)CC3F)c21 (stereo partly drawn) [I-706] |
| > 200 | < 10 | Cn1c(=O)n(C2CCC(=O)NC2=O)c2cccc([C@H]3CCN(C[C@H]4CC[C@H](n5cc6cc(NC(=O)c7cccc(C(F)(F)F)n7)ccc6n5)CC4)C[C@@H]3O)c21 (stereo partly drawn) [I-707] |
| > 200 | 10 to 100 | Cn1c(=O)n(C2CCC(=O)NC2=O)c2cccc(C3CCN(C[C@H]4CC[C@H](n5cc6cc(NC(=O)c7cccc(C(F)(F)F)n7)ccc6n5)CC4)CC3(F)F)c21 (stereo partly drawn) [I-708] |
| > 200 | 10 to 100 | COc1cc2nn([C@H]3CC[C@H](CN(C)C4CCN(c5cccc6c5n(C)c(=O)n6C5CCC(=O)NC5=O)CC4(F)F)CC3)cc2cc1NC(=O)c1cccc(C(F)(F)F)n1 (stereo partly drawn) [I-710] |
| > 200 | < 10 | Cn1c(=O)n(C2CCC(=O)NC2=O)c2cccc(C3=CCN(C[C@H]4CC[C@H](n5cc6cc(NC(=O)c7cccc(C(F)(F)F)n7)c(C#N)cc6n5)CC4)CC3F)c21 (stereo partly drawn) [I-713] |
| > 200 | < 10 | Cn1c(=O)n(C2CCC(=O)NC2=O)c2cccc(C3CCN(C[C@H]4CC[C@H](n5cc6cc(NC(=O)c7cccc(C#N)n7)ccc6n5)CC4)CC3(F)F)c21 (stereo partly drawn) [I-716] |
| > 200 | < 10 | Cn1c(=O)n(C2CCC(=O)NC2=O)c2cccc([C@H]3CCN(C[C@H]4CC[C@H](n5cc6cc(NC(=O)c7cccc(C(F)(F)F)n7)ncc6n5)CC4)C[C@@H]3F)c21 (stereo partly drawn) [I-717] |
